The values below are quoted from earlier work in patent US4380639A, “Substituted 1,2,5-thiadiazole derivatives” (Bristol-Myers Company, priority 1981, dated 1983).

Molecules are shown by their SMILES.

The subject of data set [1] is H2 -receptor.
Data set [2] deals with peptic ulcer disease. The following applies: clinical evaluation, Gray et al., Lancet 1977.
The conditions of data set [3]: in vivo.

Consider `CNC(=NC#N)NCCSCc1[nH]cnc1C` [Cimetidine], for which the “H2 -antagonist potency/effectiveness relative to comparator” value in data set [1] is reported as “as effective an H2 -antagonist as metiamide”. The “therapeutic effectiveness in peptic ulcer disease” value in data set [2] is “effective therapeutic agent in the treatment of peptic ulcer disease”.
Regarding `CNC(=S)NCCCCc1cnc[nH]1` [Burimamide], in data set [3], the oral absorption entry is recorded as “oral absorption is poor”.
On to `CNC(=S)NCCSCc1[nH]cnc1C` [Metiamide], for which, in data set [1], the “H2 -antagonist potency/effectiveness relative to comparator” value is recorded as “more potent than burimamide”.
